Laboratory results published in ChEMBL document CHEMBL3885861, “Open TG-GATES”.

Organism: Rattus norvegicus
Test: Open TG-GATES - Regimen: Single
Type: toxicity, organism-based, Sprague-Dawley
Set-up: regimen Single, gender Male, age 6 weeks
Conditions: in vivo, po, 0 mg/kg, route gavage, dose level Control; for APTT / Bas / Eos / Fbg / Ht / Lym / MCH / MCHC / MCV / Mono / Neu / PT / Plat / RBC / Ret / WBC: tissue Blood; for KIDNEY_L / KIDNEY_R / KIDNEY_TOTAL: tissue Kidney; for LIVER: tissue Liver; for ALP / ALT / AST / BUN / CRE / Ca / Cl / DBIL / GLC / IP / K / LDH / Na / PL / RALB / TBIL / TC / TG / TP / gamma-GTP: tissue Plasma

Structure (SMILES): Cc1cccc(Nc2cc(Cl)nc(SCC(=O)O)n2)c1C [PIRINIXIC ACID]
- TERMINAL_BW (3 h): 202.9 g
- APTT (3 h): 15.1 s
- Bas (3 h): 0%
- Eos (3 h): 0.4%
- Fbg (3 h): 280 mg/dL
- Ht (3 h): 40.2%
- Lym (3 h): 77.6%
- MCH (3 h): 21.5 pg
- MCHC (3 h): 33.9%
- MCV (3 h): 63.3 fL
- Mono (3 h): 2.6%
- Neu (3 h): 18%
- PT (3 h): 12.3 s
- Plat (3 h): 115.3 x10_4/uL
- RBC (3 h): 636.6 x10_4/ul
- Ret (3 h): 7.4%
- WBC (3 h): 78.3 x10_2/uL
- KIDNEY_L (3 h): 0.9 g
- KIDNEY_R (3 h): 0.8 g
- KIDNEY_TOTAL (3 h): 1.7 g
- LIVER (3 h): 8.6 g
- ALP (3 h): 1509.2 IU/L
- ALT (3 h): 48.6 IU/L
- AST (3 h): 77.6 IU/L
- BUN (3 h): 11 mg/dL
- CRE (3 h): 0.2 mg/dL
- Ca (3 h): 10.9 mg/dL
- Cl (3 h): 104.8 meq/L
- DBIL (3 h): 0.036 mg/dL
- GLC (3 h): 183.6 mg/dL
- IP (3 h): 10.5 mg/dL
- K (3 h): 3.8 meq/L
- LDH (3 h): 91.6 IU/L
- Na (3 h): 140 meq/L
- PL (3 h): 166.4 mg/dL
- RALB (3 h): 2.6 g/dL
- TBIL (3 h): 0.046 mg/dL
- TC (3 h): 82.8 mg/dL
- TG (3 h): 121 mg/dL
- TP (3 h): 5.6 g/dL
- gamma-GTP (3 h): 1.2 IU/L
- TERMINAL_BW (6 h): 201.9 g
- APTT (6 h): 17.1 s
- Bas (6 h): 0%
- Eos (6 h): 0.6%
- Fbg (6 h): 283.8 mg/dL
- Ht (6 h): 40.4%
- Lym (6 h): 73.4%
- MCH (6 h): 22 pg
- MCHC (6 h): 34.3%
- MCV (6 h): 64 fL
- Mono (6 h): 2.2%
- Neu (6 h): 22.8%
- PT (6 h): 12.2 s
- Plat (6 h): 115 x10_4/uL
- RBC (6 h): 630.8 x10_4/ul
- Ret (6 h): 7.6%
- WBC (6 h): 95.9 x10_2/uL
- KIDNEY_L (6 h): 0.8 g
- KIDNEY_R (6 h): 0.8 g
- KIDNEY_TOTAL (6 h): 1.7 g
- LIVER (6 h): 8 g
- ALP (6 h): 1969 IU/L
- ALT (6 h): 37.8 IU/L
- AST (6 h): 74.4 IU/L
- BUN (6 h): 10.2 mg/dL
- CRE (6 h): 0.2 mg/dL
- Ca (6 h): 10.7 mg/dL
- Cl (6 h): 106.2 meq/L
- DBIL (6 h): 0.026 mg/dL
- GLC (6 h): 185.8 mg/dL
- IP (6 h): 10.3 mg/dL
- K (6 h): 4.1 meq/L
- LDH (6 h): 69.2 IU/L
- Na (6 h): 139.8 meq/L
- PL (6 h): 145 mg/dL
- RALB (6 h): 2.5 g/dL
- TBIL (6 h): 0.046 mg/dL
- TC (6 h): 75.8 mg/dL
- TG (6 h): 78 mg/dL
- TP (6 h): 5.4 g/dL
- gamma-GTP (6 h): 1.2 IU/L
- TERMINAL_BW (9 h): 205.2 g
- APTT (9 h): 15.9 s
- Bas (9 h): 0%
- Eos (9 h): 0.8%
- Fbg (9 h): 268 mg/dL
- Ht (9 h): 39.5%
- Lym (9 h): 74.6%
- MCH (9 h): 21.3 pg
- MCHC (9 h): 34.1%
- MCV (9 h): 62.4 fL
- Mono (9 h): 2.6%
- Neu (9 h): 21.6%
- PT (9 h): 12.4 s
- Plat (9 h): 117.6 x10_4/uL
- RBC (9 h): 632.8 x10_4/ul
- Ret (9 h): 7.6%
- WBC (9 h): 69.1 x10_2/uL
- KIDNEY_L (9 h): 0.9 g
- KIDNEY_R (9 h): 0.9 g
- KIDNEY_TOTAL (9 h): 1.7 g
- LIVER (9 h): 7.9 g
- ALP (9 h): 1428 IU/L
- ALT (9 h): 34.8 IU/L
- AST (9 h): 67.4 IU/L
- BUN (9 h): 10.6 mg/dL
- CRE (9 h): 0.2 mg/dL
- Ca (9 h): 10.6 mg/dL
- Cl (9 h): 103.6 meq/L
- DBIL (9 h): 0.02 mg/dL
- GLC (9 h): 189 mg/dL
- IP (9 h): 10.7 mg/dL
- K (9 h): 3.6 meq/L
- LDH (9 h): 52.8 IU/L
- Na (9 h): 140.8 meq/L
- PL (9 h): 146 mg/dL
- RALB (9 h): 2.5 g/dL
- TBIL (9 h): 0.038 mg/dL
- TC (9 h): 80.2 mg/dL
- TG (9 h): 53.6 mg/dL
- TP (9 h): 5.2 g/dL
- gamma-GTP (9 h): 1 IU/L
- TERMINAL_BW (24 h): 212.4 g
- APTT (24 h): 16.5 s
- Bas (24 h): 0%
- Eos (24 h): 1%
- Fbg (24 h): 285.8 mg/dL
- Ht (24 h): 38.8%
- Lym (24 h): 73.8%
- MCH (24 h): 21.6 pg
- MCHC (24 h): 34.2%
- MCV (24 h): 63.2 fL
- Mono (24 h): 3%
- Neu (24 h): 21.8%
- PT (24 h): 12.2 s
- Plat (24 h): 112.5 x10_4/uL
- RBC (24 h): 614 x10_4/ul
- Ret (24 h): 7.3%
- WBC (24 h): 80.5 x10_2/uL
- KIDNEY_L (24 h): 0.9 g
- KIDNEY_R (24 h): 0.9 g
- KIDNEY_TOTAL (24 h): 1.9 g
- LIVER (24 h): 9.7 g
- ALP (24 h): 1823.2 IU/L
- ALT (24 h): 42.8 IU/L
- AST (24 h): 71.4 IU/L
- BUN (24 h): 14.8 mg/dL
- CRE (24 h): 0.2 mg/dL
- Ca (24 h): 11 mg/dL
- Cl (24 h): 104.6 meq/L
- DBIL (24 h): 0.02 mg/dL
- GLC (24 h): 179.8 mg/dL
- IP (24 h): 8.4 mg/dL
- K (24 h): 4 meq/L
- LDH (24 h): 61 IU/L
- Na (24 h): 142.6 meq/L
- PL (24 h): 147 mg/dL
- RALB (24 h): 2.6 g/dL
- TBIL (24 h): 0.032 mg/dL
- TC (24 h): 79.8 mg/dL
- TG (24 h): 71.6 mg/dL
- TP (24 h): 5.5 g/dL
